Source: patent US20230183643A1, “COMPOSITIONS AND METHODS FOR PRODUCING PLACENTAL CELLS” (Regents of the University of Minnesota, priority 2021, published 2023)
“Also recorded” adds a separate entry of the source.

Legend:
Type in all cases: cell-based, human
IMR-90-4 hiPSCs [1] = experiment: PCR and qRT-PCR of trophoblast cell marker transcripts and C19 miRNAs; settings: for CDX2 transcript level (qRT-PCR) / GATA3 transcript level (qRT-PCR) / KLF4 transcript level (qRT-PCR) / KRT7 transcript level (qRT-PCR): 5 days of incubation, compared to UM alone (FIG. 10); for CDX2 mRNA transcript level (PCR / RT-PCR): after 5 days in UM with 1 μM RA, 8 μM CHIR, RA+CHIR or 1 μM SU6656
Experimental: For differentiation, 70% confluent stem cells were rinsed with DPBS (Gibco) and pre-warmed Accutase was added to the wells. Cells were then placed at 37° C. for 5-7 minutes. Following incubation, cells were removed from the well with a p1000 pipette. The cells in Accutase solution were then added to a conical tube containing an equal volume of fresh media and spun down at 200×g for 5 minutes. The cells were then resuspended and seeded on Matrigel-coated plates at 6,000 cells/cm^2 in TeSR-E8 or mTeSR Plus with 5 μM ROCK inhibitor (Y-27632, Stem Cell Tech). Cells were maintained in E8 or mTeSR Plus for two more days, and then the medium was changed to unconditioned medium (UM): […] RA and/or CHIR were excluded in control experiments (FIG. 1), as described. Cell culture media was changed daily for five days. The induced multipotent placental cells produced by this method are termed iMPC1 cells (also referred herein, as iMPC1-D5 cells). As described herein, the cells may alternatively be exposed to RA+CHIR for 3 or 4 days. For example, iMPC1-D3 and iMPC1-D4, may also be produced wherein the cells are exposed to RA+CHIR for 3 and 4 days, respectively. Cell pellets were collected and lysed using QiaShredder columns (Qiagen). RNA was isolated using the RNeasy Mini Kit (Qiagen) as the manufacturer recommends, including incubation with DNase I (RNAse-free DNase Set, Qiagen). Collected RNA was quantified using a NanoDrop. Reverse transcription was performed on 1000 ng RNA using the Omni script RT Kit (Qiagen). RNA with Oligo-dT primer (Life Tech) was denatured for 5 minutes at 65° C. before the remaining elements were added and incubated at 37° C. for 1 hour. Quantitative real time PCR (qRT-PCR) was performed using iTaq Universal SYBR Green Supermix (Bio Rad) as the manufacturer recommends. Primers (Table 2) were added at 250 nM each (forward and reverse). Analysis was performed on a Bio Rad CFX Connect Real-Time PCR system. GAPDH was used as a reference gene, and error was propagated using the […] method. PCR was performed identically as above through the reverse transcription step to generate cDNA. GoTaq Master Mix (Promega) was used for PCR per the manufacturer's instructions. Primers (Table 2) were added at […] each. PCR products were visualized on a 2% agarose gel containing SYBR Safe (Thermo Fisher) after electrophoresis at […] for 100 minutes. Gels were imaged using a ChemiDoc Touch Gel/Blot Reader (Bio Rad).

IMR-90-4 hiPSCs [2] = experiment: Immunostaining for pluripotency and lineage-specific markers after treatment; settings: for CDX2 protein expression (immunostaining): after 5 days incubation, 1 μM RA, 8 μM CHIR-99021, 1 μM SU6656 or RA+CHIR in UM or E6; for Keratin 8 expression (immunostaining): UM+1 μM RA or UM+1 μM SU6656
Experimental: For differentiation, 70% confluent stem cells were rinsed with DPBS (Gibco) and pre-warmed Accutase was added to the wells. Cells were then placed at 37° C. for 5-7 minutes. Following incubation, cells were removed from the well with a p1000 pipette. The cells in Accutase solution were then added to a conical tube containing an equal volume of fresh media and spun down at 200×g for 5 minutes. The cells were then resuspended and seeded on Matrigel-coated plates at 6,000 cells/cm^2 in TeSR-E8 or mTeSR Plus with 5 μM ROCK inhibitor (Y-27632, Stem Cell Tech). Cells were maintained in E8 or mTeSR Plus for two more days, and then the medium was changed to unconditioned medium (UM): […] RA and/or CHIR were excluded in control experiments (FIG. 1), as described. Cell culture media was changed daily for five days. The induced multipotent placental cells produced by this method are termed iMPC1 cells (also referred herein, as iMPC1-D5 cells). As described herein, the cells may alternatively be exposed to RA+CHIR for 3 or 4 days. For example, iMPC1-D3 and iMPC1-D4, may also be produced wherein the cells are exposed to RA+CHIR for 3 and 4 days, respectively. For immunocytochemistry analysis, cells were rinsed 2× with PBS and then fixed for 10 minutes with 4% paraformaldehyde (PFA) at room temperature. […] Primary antibodies (Table 1A) were diluted into PBSGT and incubated on cells overnight at 4° C. Cells were washed 3× in PBST for 15 minutes, and then secondary antibodies (Table 1B) were diluted 1:500 in PBSGT and incubated on the cells for 1 hour at room temperature. Following a 10-minute PBS wash, cells were incubated with a DAPI solution for 10 minutes. Another 10-minute PBS wash was performed before the cells were imaged on an EVOS microscope.

IMR-90-4 hiPSCs [3] = experiment: Flow cytometry of CDX2, Oct-4, GATA3 and Keratin 7 in hiPSCs differentiated with RA and/or CHIR; settings: 5 days in UM, 1 μM RA with or without 8 μM CHIR
Experimental: For differentiation, 70% confluent stem cells were rinsed with DPBS (Gibco) and pre-warmed Accutase was added to the wells. Cells were then placed at 37° C. for 5-7 minutes. Following incubation, cells were removed from the well with a p1000 pipette. The cells in Accutase solution were then added to a conical tube containing an equal volume of fresh media and spun down at 200×g for 5 minutes. The cells were then resuspended and seeded on Matrigel-coated plates at 6,000 cells/cm^2 in TeSR-E8 or mTeSR Plus with 5 μM ROCK inhibitor (Y-27632, Stem Cell Tech). Cells were maintained in E8 or mTeSR Plus for two more days, and then the medium was changed to unconditioned medium (UM): DMEM/F12 with 20% Knockout serum replacement, MEM non-essential amino acids (1×), GlutaMAX (lx, Life Tech), and 0.1 mM β-mercaptoethanol (Sigma), containing 1 μM retinoic acid (RA, Sigma) and […] (Tocris). RA and/or CHIR were excluded in control experiments (FIG. 1), as described. Cell culture media was changed daily for five days. The induced multipotent placental cells produced by this method are termed iMPC1 cells (also referred herein, as iMPC1-D5 cells). […]
Cells were rinsed 2× with PBS and then pre-warmed Accutase was added to the wells. […] Plots shown are representative of a single independent replicate, but medians and standard deviations were calculated from three independent replicates.

Structure (SMILES): Cc1cnc(-c2cnc(NCCNc3ccc(C#N)cn3)nc2-c2ccc(Cl)cc2Cl)[nH]1 [CHIR-99021, 6-[[2-[[4-(2,4-Dichlorophenyl)-5-(5-methyl-1H-imidazol-2-yl)-2-pyrimidinyl]amino]ethyl]amino]-3-pyridinecarbonitrile]
- CDX2 transcript level (qRT-PCR) (IMR-90-4 hiPSCs [1]): upregulating
- GATA3 transcript level (qRT-PCR) (IMR-90-4 hiPSCs [1]): compromised the expression
- KLF4 transcript level (qRT-PCR) (IMR-90-4 hiPSCs [1]): compromised the expression
- KRT7 transcript level (qRT-PCR) (IMR-90-4 hiPSCs [1]): compromised the expression
- CDX2 mRNA transcript level (PCR / RT-PCR) (IMR-90-4 hiPSCs [1]): low levels of CDX2 expression
- CDX2 protein expression (immunostaining) (IMR-90-4 hiPSCs [2]): unable to induce CDX2 protein expression

Structure (SMILES): CC1=C(/C=C/C(C)=C/C=C/C(C)=C/C(=O)O)C(C)(C)CCC1 [RA, retinoic acid]
- CDX2 transcript level (qRT-PCR) (IMR-90-4 hiPSCs [1]): upregulation
- GATA3 transcript level (qRT-PCR) (IMR-90-4 hiPSCs [1]): upregulation
- KLF4 transcript level (qRT-PCR) (IMR-90-4 hiPSCs [1]): upregulation
- KRT7 transcript level (qRT-PCR) (IMR-90-4 hiPSCs [1]): upregulation
- CDX2 mRNA transcript level (PCR / RT-PCR) (IMR-90-4 hiPSCs [1]): heightened expression; also recorded: restricted to the RA condition
- Keratin 18 (KRT18) expression (immunostaining) (IMR-90-4 hiPSCs [2]; 1 μM RA in UM, 5 days): gained expression
- Oct-4 expression (immunostaining) (IMR-90-4 hiPSCs [2]; 1 μM RA in UM, 5 days): lost expression
- lowest concentration tested which resulted in CDX2 expression (IMR-90-4 hiPSCs [2]; 5 days in UM, 0.1, 1 and 10 μM RA tested): 1 µM
- Keratin 8 expression (immunostaining) (IMR-90-4 hiPSCs [2]; 5 days): expressed in all conditions
- CDX2 protein expression (immunostaining) (IMR-90-4 hiPSCs [2]): gained expression; also recorded: restricted to the RA condition
- interquartile range (IQR) of CDX2 expression (flow cytometry) (IMR-90-4 hiPSCs [3]): 119
- CDX2 median expression intensity (flow cytometry) (IMR-90-4 hiPSCs [3]; p<0.001): 1348±42

Structure (SMILES): CN(C)S(=O)(=O)c1ccc2c(c1)/C(=C/c1cc3c([nH]1)CCCC3)C(=O)N2 [SU6656]
- CDX2 mRNA transcript level (PCR / RT-PCR) (IMR-90-4 hiPSCs [1]): restricted to the RA condition
- Keratin 8 expression (immunostaining) (IMR-90-4 hiPSCs [2]; 5 days): expressed in all conditions
- CDX2 protein expression (immunostaining) (IMR-90-4 hiPSCs [2]): restricted to the RA condition
